Several values for one entry are separate records, joined by “and”; a condition that tells them apart may be missing. Equal entries are not always repeated.
Molecular target: Glutamate receptor ionotropic, NMDA 1 (Rattus norvegicus, UniProt P35439)

Compound | Ki
N[C@H](CC(=O)O)C(=O)O | 800 nM and 900 nM
N[C@@H](Cn1oc(=O)[nH]c1=O)C(=O)O [2-amino-3-(3,5-dioxo[1,2,4]oxadiazolidin-2-yl)propionic acid] | > 10000 nM
N[C@H](CCCP(=O)(O)O)C(=O)O [CB3371309] | 350 nM and 400 nM
O=C(O)[C@H]1CN(CCCP(=O)(O)O)CCN1 [CPP] | 220 nM and 150 nM
NC(CCCCCP(=O)(O)O)C(=O)O (stereo not drawn) [DL-AP7] | 900 nM and 1100 nM
O=C(O)c1cccc(C(=O)O)n1 [Dipicolinate] | > 10000 nM
N[C@@H](CC(=O)O)C(=O)O [L-Aspartic acid, 2] | 1400 nM and 1600 nM
CN[C@H](CC(=O)O)C(=O)O [NMDA] | 4100 nM and 5600 nM
O=C(O)[C@@H]1C[C@H](CP(=O)(O)O)CCN1 [Selfotel] | 140 nM
CCOC(=O)CC[C@H](N)C(=O)OCC [glutamic acid diethyl ester] | > 10000 nM
O=C(O)c1cccnc1C(=O)O [pyridine-2,3-dicarboxylic acid] | > 10000 nM

Reference: BindingDB's records for doi:10.1111/j.1476-5381.1988.tb11723.x (Ciba-Geigy, 1988)
